PMC6104039 (Nature Communications, 2018)

Assays:
HEK293 cells = test: Non-viable cells by propidium iodide staining and flow cytometry, 72 h; format: cell-based; details: at or below 1 μM
Experimental: Lipid levels are expressed as a percentage of vehicle control levels. […] All graphs show combined data from two independent experiments, each with 3 (a) or 4 (b-d) separate cell treatments, mean ± SEM. Statistical significance in (b-d) was determined by t-tests adjusted for multiple comparisons, comparing all lipids (22 lipids tested in total) at each concentration to the control group; ^+P < 0.05; ^#P < 0.01; *P < 0.001

[1] = Plasma P053 concentration after oral dosing, LC-MS/MS; format: in vivo, mice
Experimental: Plasma samples (20 μL) were extracted with 200 μL methanol containing 20 pmoles AAL(S)[27] as the internal standard. The mixtures were vortexed, then sonicated in ice water using a Bioruptor (Diagenode) for 2 min at 30 s intervals. Extracts were centrifuged at 1400 rpm for 20 min, 4 °C, to clear debris. Supernatants were transferred to 5 mL glass tubes. The remaining insoluble material was re-extracted with 1 mL 80% methanol as above, and the supernatant combined with the first extract. The extracts were evaporated under vacuum (Savant SC210 SpeedVac, Thermo Scientific). Dried extracts were reconstituted in 200 μL of 80% methanol/0.2% formic acid and stored at −20 °C. On the day of analysis, the extracts were vortexed thoroughly and centrifuged at 300 × g for 20 min before transferring 100 μL of the supernatant to glass HPLC vials.
LC-MS/MS was performed on a TSQ Quantum Access triple quadrupole mass spectrometer in positive ion mode, coupled to an Accela UPLC system (Thermo Scientific). Extracts (20 μL) were separated on a 2 × 100 mm Eclipse XDB-C8 column with 1.8 μm particle size (Agilent Technologies), using a 7.5 min binary HPLC gradient: 0 min, 70% B ([…]); 1.5 min, 70% B; 3.5 min, 95% B; 4 min, 95% B; 4.5 min, 70% B; 7.5 min 70% B. Mobile phase A: 2 mM ammonium formate/1% formic acid in water; mobile phase B: 1 mM ammonium formate/1% formic acid in methanol. The flow rate was 0.4 mL min^−1, increasing to 0.5 mL min^−1 from 5–7 min, and column oven 30 °C. […] Visualisation and quantification of peaks was performed using Thermo Fisher’s XCalibur software v2.2.

concentration at 6 weeks ([1]; C57BL6/J, mouse, plasma, oral, 5 mg/kg/day for 6 weeks): ~300 nM | half-life ([1]; C57BL6/J, mouse, plasma, single 5 mg/kg dose by oral gavage): 28 h | Tmax ([1]; C57BL6/J, mouse, plasma, single 5 mg/kg dose by oral gavage, read-out: time of maximal plasma concentration): 4 h | maximal plasma concentration ([1]; single 5 mg/kg dose by oral gavage): 20 nM
SMILES: C[C@@](N)(CO)CCc1ccc(OCc2ccc(Cl)c(Cl)c2)cc1 [P053, (S)-2-amino-4-(4-(3,4-dichlorobenzyloxy)phenyl)-2-methylbutan-1-ol]
HEK293 cell viability (HEK293 cells): no effect
